According to patent US20220364989A1, “METHOD FOR MEASURING PHOTOTOXICITY OR PHOTOALLERGY AND REAGENT FOR USE THEREIN” (FUJIFILM Corporation, priority 2018, published 2022):
Where two headings read alike, the source gives them in different places.

Columns and labels:
[1] = cited from earlier work
[2] = cited from earlier work; remark: listed apart in the source
[3] = Average score of NAC and NAL depletion and phototoxicity or photoallergy determination, fluorescence detection
[4] = NAC depletion under and without ultraviolet irradiation, HPLC with fluorescence detection (284 nm excitation, 333 nm fluorescence)
[5] = NAL depletion under and without ultraviolet irradiation, HPLC with fluorescence detection (284 nm excitation, 333 nm fluorescence)
[6] = NAC depletion under and without ultraviolet irradiation, HPLC with UV detection (281 nm)
[7] = NAL depletion under and without ultraviolet irradiation, HPLC with UV detection (281 nm)
[8] = Average score of NAC and NAL depletion and phototoxicity or photoallergy determination, UV detection
[9] = under light irradiation, single compound
[10] = photoallergic compound concentration 0.05 mg/mL
[11] = photoallergic compound concentration 0.2 mg/mL
[12] = photoallergic compound concentration 0.5 mg/mL
[13] = under light irradiation, photoallergic compound concentration 0.05 mg/mL
[14] = under light irradiation, photoallergic compound concentration 0.2 mg/mL
[15] = under light irradiation, photoallergic compound concentration 0.5 mg/mL
[16] = without light irradiation, photoallergic compound concentration 0.05 mg/mL
[17] = without light irradiation, photoallergic compound concentration 0.2 mg/mL
[18] = without light irradiation, photoallergic compound concentration 0.5 mg/mL
[19] = without light irradiation, single compound
[20] = 25° C. 24 hours light-shielded, test substance solution 1 mmol/L
[21] = 2,000 μW/cm^2 for 1 hour then 25° C. 23 hours, test substance solution 1 mmol/L
[22] = average of NAC and NAL depletion

Cc1c([N+](=O)[O-])c(C)c([N+](=O)[O-])c(C(C)(C)C)c1[N+](=O)[O-] [No. 18, Musk xylene, reference compound]
In vivo phototoxicity ([1]; literature classification): Negative | In vivo photoallergy ([2]; literature classification): Positive | Average score (%) [3, 9]: 47.6% | NAC Depletion (%) [4, 9]: 88.9% | NAL Depletion (%) [5, 9]: 6.4%

NS(=O)(=O)c1cc2c(cc1Cl)NCNS2(=O)=O [2-4]
Difference in depletion (under light irradiation - without light irradiation) NAC (%) [6, 10]: 20.9% | Difference in depletion (under light irradiation - without light irradiation) NAC (%) [6, 11]: 60.1% | Difference in depletion (under light irradiation - without light irradiation) NAC (%) [6, 12]: 84.5% | NAC Depletion (%) under light irradiation [6, 13]: 20.9% | NAC Depletion (%) under light irradiation [6, 14]: 60.1% | NAC Depletion (%) under light irradiation [6, 15]: 84.5% | NAC Depletion (%) without light irradiation [6, 16]: 0.0% | NAC Depletion (%) without light irradiation [6, 17]: 0.0% | NAC Depletion (%) without light irradiation [6, 18]: 0.0% | Difference in depletion (under light irradiation - without light irradiation) NAL (%) [7, 10]: 0.3% | Difference in depletion (under light irradiation - without light irradiation) NAL (%) [7, 11]: 1.4% | Difference in depletion (under light irradiation - without light irradiation) NAL (%) [7, 12]: 4.4% | NAL Depletion (%) under light irradiation [7, 13]: 0.3% | NAL Depletion (%) under light irradiation [7, 14]: 1.4% | NAL Depletion (%) under light irradiation [7, 15]: 4.4% | NAL Depletion (%) without light irradiation [7, 16]: 0.0% | NAL Depletion (%) without light irradiation [7, 17]: 0.0% | NAL Depletion (%) without light irradiation [7, 18]: 0.0% | Difference in depletion (under light irradiation - without light irradiation) Average score (%) [8, 11]: 30.8% | Difference in depletion (under light irradiation - without light irradiation) Average score (%) [8, 12]: 44.5% | Average score (%) under light irradiation [8, 14]: 30.8% | Average score (%) under light irradiation [8, 15]: 44.5% | Average score (%) without light irradiation [8, 16]: 0.0% | Average score (%) without light irradiation [8, 17]: 0.0% | Average score (%) without light irradiation [8, 18]: 0.0% | Difference in depletion (under light irradiation - without light irradiation) Average score (%) [3, 10]: 12.3% | Difference in depletion (under light irradiation - without light irradiation) Average score (%) [3, 11]: 32.1% | Difference in depletion (under light irradiation - without light irradiation) Average score (%) [3, 12]: 45.8% | Average score (%) under light irradiation [3, 13]: 12.3% | Average score (%) under light irradiation [3, 14]: 32.1% | Average score (%) under light irradiation [3, 15]: 45.8% | Average score (%) without light irradiation [3, 16]: 0.0% | Average score (%) without light irradiation [3, 17]: 0.0% | Average score (%) without light irradiation [3, 18]: 0.0% | Difference in depletion (under light irradiation - without light irradiation) NAC (%) [4, 10]: 21.9% | Difference in depletion (under light irradiation - without light irradiation) NAC (%) [4, 11]: 60.2% | Difference in depletion (under light irradiation - without light irradiation) NAC (%) [4, 12]: 85.9% | NAC Depletion (%) under light irradiation [4, 13]: 21.9% | NAC Depletion (%) under light irradiation [4, 14]: 60.2% | NAC Depletion (%) under light irradiation [4, 15]: 85.9% | NAC Depletion (%) without light irradiation [4, 16]: 0.0% | NAC Depletion (%) without light irradiation [4, 17]: 0.0% | NAC Depletion (%) without light irradiation [4, 18]: 0.0% | Difference in depletion (under light irradiation - without light irradiation) NAL (%) [5, 10]: 2.6% | Difference in depletion (under light irradiation - without light irradiation) NAL (%) [5, 11]: 4.0% | Difference in depletion (under light irradiation - without light irradiation) NAL (%) [5, 12]: 5.6% | NAL Depletion (%) under light irradiation [5, 13]: 2.6% | NAL Depletion (%) under light irradiation [5, 14]: 4.0% | NAL Depletion (%) under light irradiation [5, 15]: 5.6% | NAL Depletion (%) without light irradiation [5, 16]: 0.0% | NAL Depletion (%) without light irradiation [5, 17]: 0.0% | NAL Depletion (%) without light irradiation [5, 18]: 0.0%

COc1c2occc2cc2ccc(=O)oc12 [No. 3, 8-Methoxypsoralen, reference compound]
In vivo phototoxicity ([1]; in vivo): Positive | In vivo photoallergy ([2]; in vivo): Positive | Average score (%) [3, 9]: 72.0% | NAC Depletion (%) [4, 9]: 98.6% | NAL Depletion (%) [5, 9]: 45.4%

CCO [No. 50, Ethanol]
In vivo phototoxicity ([1]; in vivo): Negative | In vivo photoallergy ([2]; in vivo): Negative | Average score (%) [3, 9]: 0.0%

Tetrachlorosalicylanilide [No. 12, reference compound]
In vivo phototoxicity ([1]; literature classification): Positive | In vivo photoallergy ([2]; literature classification): Positive | Average score (%) [3, 9]: 92.0% | NAC Depletion (%) [4, 9]: 97.4% | NAL Depletion (%) [5, 9]: 86.5%

CC1(C)S[C@@H]2[C@H](NC(=O)Cc3ccccc3)C(=O)N2[C@H]1C(=O)O [No. 44, Penicillin G, reference compound]
In vivo phototoxicity ([1]; literature classification): Negative | In vivo photoallergy ([2]; literature classification): Negative | Average score (%) [3, 9]: 1.8% | NAC Depletion (%) [4, 9]: 2.4% | NAL Depletion (%) [5, 9]: 1.2%

CC(O)CO (racemic) [compound 54]
Difference in depletion (under light irradiation - without light irradiation) NAC (%) ([6]; single compound): 0.2% | NAC Depletion (%) [6, 19]: 0.0% | Difference in depletion (under light irradiation - without light irradiation) NAL (%) ([7]; single compound): 0.0% | NAL Depletion (%) [7, 19]: 0.0% | Difference in depletion (under light irradiation - without light irradiation) Average score (%) ([8]; single compound): 0.1% | Average score (%) [8, 19]: 0.0% | Difference in depletion (under light irradiation - without light irradiation) Average score (%) ([3]; single compound): 0.3% | Average score (%) [3, 19]: 0.0% | Difference in depletion (under light irradiation - without light irradiation) NAC (%) ([4]; single compound): 0.0% | NAC Depletion (%) [4, 19]: 0.0% | Difference in depletion (under light irradiation - without light irradiation) NAL (%) ([5]; single compound): 0.7% | NAL Depletion (%) [5, 19]: 0.0%

Nc1ccc(S(N)(=O)=O)cc1 [3-4, Sulfanilamide]
Difference in depletion (under light irradiation - without light irradiation) NAC (%) [6, 11]: 51.3% | Difference in depletion (under light irradiation - without light irradiation) NAC (%) [6, 12]: 79.4% | NAC Depletion (%) under light irradiation [6, 14]: 51.3% | NAC Depletion (%) under light irradiation [6, 15]: 79.4% | NAC Depletion (%) without light irradiation [6, 16]: 0.0% | NAC Depletion (%) without light irradiation [6, 17]: 0.0% | NAC Depletion (%) without light irradiation [6, 18]: 0.0% | Difference in depletion (under light irradiation - without light irradiation) NAL (%) [7, 10]: 0.0% | Difference in depletion (under light irradiation - without light irradiation) NAL (%) [7, 11]: 0.3% | Difference in depletion (under light irradiation - without light irradiation) NAL (%) [7, 12]: 0.0% | NAL Depletion (%) under light irradiation [7, 13]: 0.0% | NAL Depletion (%) under light irradiation [7, 14]: 0.3% | NAL Depletion (%) under light irradiation [7, 15]: 0.0% | NAL Depletion (%) without light irradiation [7, 16]: 0.0% | NAL Depletion (%) without light irradiation [7, 17]: 0.0% | NAL Depletion (%) without light irradiation [7, 18]: 0.0% | Difference in depletion (under light irradiation - without light irradiation) Average score (%) [8, 10]: 10.2% | Difference in depletion (under light irradiation - without light irradiation) Average score (%) [8, 12]: 39.7% | Average score (%) under light irradiation [8, 13]: 10.2% | Average score (%) under light irradiation [8, 15]: 39.7% | Average score (%) without light irradiation [8, 16]: 0.0% | Average score (%) without light irradiation [8, 17]: 0.0% | Average score (%) without light irradiation [8, 18]: 0.0% | Difference in depletion (under light irradiation - without light irradiation) Average score (%) [3, 10]: 11.8% | Difference in depletion (under light irradiation - without light irradiation) Average score (%) [3, 12]: 40.6% | Average score (%) under light irradiation [3, 13]: 11.8% | Average score (%) under light irradiation [3, 15]: 40.6% | Average score (%) without light irradiation [3, 16]: 0.0% | Average score (%) without light irradiation [3, 17]: 0.0% | Average score (%) without light irradiation [3, 18]: 0.0% | Difference in depletion (under light irradiation - without light irradiation) NAC (%) [4, 11]: 49.9% | Difference in depletion (under light irradiation - without light irradiation) NAC (%) [4, 12]: 78.2% | NAC Depletion (%) under light irradiation [4, 14]: 49.9% | NAC Depletion (%) under light irradiation [4, 15]: 78.2% | NAC Depletion (%) without light irradiation [4, 16]: 0.0% | NAC Depletion (%) without light irradiation [4, 17]: 0.0% | NAC Depletion (%) without light irradiation [4, 18]: 0.0% | Difference in depletion (under light irradiation - without light irradiation) NAL (%) [5, 10]: 2.4% | Difference in depletion (under light irradiation - without light irradiation) NAL (%) [5, 11]: 1.8% | Difference in depletion (under light irradiation - without light irradiation) NAL (%) [5, 12]: 3.1% | NAL Depletion (%) under light irradiation [5, 13]: 2.4% | NAL Depletion (%) under light irradiation [5, 14]: 1.8% | NAL Depletion (%) under light irradiation [5, 15]: 3.1% | NAL Depletion (%) without light irradiation [5, 16]: 0.0% | NAL Depletion (%) without light irradiation [5, 17]: 0.0% | NAL Depletion (%) without light irradiation [5, 18]: 0.0%

CC(O)CCO (stereo not shown) [compound 46]
Difference in depletion (under light irradiation - without light irradiation) NAC (%) [6]: 0.7% | NAC Depletion (%) without light irradiation [6, 20]: 0.0% | NAC Depletion (%) under light irradiation [6, 21]: 0.7% | Difference in depletion (under light irradiation - without light irradiation) NAL (%) [7]: 0.0% | NAL Depletion (%) without light irradiation [7, 20]: 0.0% | NAL Depletion (%) under light irradiation [7, 21]: 0.0% | Difference in depletion (under light irradiation - without light irradiation) Average score (%) [8]: 0.4% | Average score (%) under light irradiation [8, 22]: 0.4% | Average score (%) without light irradiation [8, 22]: 0.0% | Difference in depletion (under light irradiation - without light irradiation) Average score (%) ([3]; single compound): 0.1% | Average score (%) [3, 19]: 0.1% | Difference in depletion (under light irradiation - without light irradiation) NAC (%) ([4]; single compound): 0.2% | NAC Depletion (%) [4, 19]: 0.0% | Difference in depletion (under light irradiation - without light irradiation) NAL (%) ([5]; single compound): −0.1% | NAL Depletion (%) [5, 19]: 0.1%
